Measured values published in ChEMBL document CHEMBL1134076, “5,5-Diaryl-2-amino-4-pentenoates as novel, potent, and selective glycine transporter type-2 reuptake inhibitors” (Bioorg Med Chem Lett, 2001).

How the values were obtained:
[1] = target: T1, Sodium- and chloride-dependent glycine transporter 1 (Rattus norvegicus, UniProt P28572); test: In vitro glycine reuptake inhibitory activity against glycine transporter type-1 isoform C (GlyT-1c) transporter cells after incubation at 37 degrees for 30 min in presence of 50 nM [3H]glycine.
T1 sequence (P28572 whole entry): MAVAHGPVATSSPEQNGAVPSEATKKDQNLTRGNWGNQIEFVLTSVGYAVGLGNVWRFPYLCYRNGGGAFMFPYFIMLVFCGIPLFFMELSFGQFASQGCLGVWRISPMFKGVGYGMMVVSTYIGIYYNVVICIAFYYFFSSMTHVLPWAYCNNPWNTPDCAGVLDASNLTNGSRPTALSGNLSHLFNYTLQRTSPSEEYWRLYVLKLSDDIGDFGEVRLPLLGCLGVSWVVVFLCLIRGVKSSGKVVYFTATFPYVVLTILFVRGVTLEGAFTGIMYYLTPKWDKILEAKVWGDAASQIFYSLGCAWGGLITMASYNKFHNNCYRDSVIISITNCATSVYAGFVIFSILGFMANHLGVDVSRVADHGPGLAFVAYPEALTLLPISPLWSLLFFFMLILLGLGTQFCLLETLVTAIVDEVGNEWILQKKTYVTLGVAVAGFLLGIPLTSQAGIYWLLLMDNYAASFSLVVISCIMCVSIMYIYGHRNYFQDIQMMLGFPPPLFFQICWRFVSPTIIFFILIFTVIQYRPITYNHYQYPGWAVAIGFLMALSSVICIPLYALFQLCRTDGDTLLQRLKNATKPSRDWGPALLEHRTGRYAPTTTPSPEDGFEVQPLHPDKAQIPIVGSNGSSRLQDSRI

[2] = target: T2, Sodium- and chloride-dependent glycine transporter 2 (Rattus norvegicus, UniProt P58295); test: In vitro glycine reuptake inhibitory activity against glycine transporter type-2 (GlyT-2) transporter cells after incubation at 37 degrees for 30 min in presence of 50 nM [3H]glycine.
T2 sequence (P58295 whole entry): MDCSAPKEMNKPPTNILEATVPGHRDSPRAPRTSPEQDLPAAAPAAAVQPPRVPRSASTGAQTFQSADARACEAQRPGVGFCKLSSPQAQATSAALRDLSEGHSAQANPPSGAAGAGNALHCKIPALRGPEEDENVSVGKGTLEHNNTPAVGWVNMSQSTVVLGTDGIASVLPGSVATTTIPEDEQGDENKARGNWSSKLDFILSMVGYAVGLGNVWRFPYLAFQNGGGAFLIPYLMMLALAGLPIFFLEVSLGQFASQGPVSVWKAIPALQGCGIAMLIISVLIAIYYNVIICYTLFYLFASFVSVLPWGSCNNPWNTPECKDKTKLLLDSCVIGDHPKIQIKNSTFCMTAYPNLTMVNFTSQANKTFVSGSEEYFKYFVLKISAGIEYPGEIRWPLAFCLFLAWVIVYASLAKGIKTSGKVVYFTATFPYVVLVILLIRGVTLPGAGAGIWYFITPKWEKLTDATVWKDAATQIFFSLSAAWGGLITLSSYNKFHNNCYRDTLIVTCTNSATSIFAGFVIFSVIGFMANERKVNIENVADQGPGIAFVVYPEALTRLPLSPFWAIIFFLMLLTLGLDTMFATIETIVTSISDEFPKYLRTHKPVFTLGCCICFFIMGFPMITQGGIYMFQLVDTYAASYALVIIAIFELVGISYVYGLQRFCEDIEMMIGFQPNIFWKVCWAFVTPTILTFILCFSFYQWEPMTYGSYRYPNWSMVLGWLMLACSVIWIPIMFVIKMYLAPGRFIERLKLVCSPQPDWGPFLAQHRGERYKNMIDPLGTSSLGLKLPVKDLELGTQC

| IC50 [1] [µM] | IC50 [2] [µM] | Structure (SMILES) |
| --- | --- | --- |
| 3.4 | 2.4 | NC(C/C=C(/c1ccc(-c2ccccc2)cc1)c1ccc(F)cc1F)C(=O)O (stereo not given) |
| > 10 | 0.46 | CCc1ccc(/C(=C\CC(N)C(=O)O)c2ccc(F)cc2F)cc1 (stereo not given) |
| > 10 | 0.77 | NC(C/C=C(\c1ccc2ccccc2c1)c1ccc(F)cc1F)C(=O)O (stereo not given) |
| > 10 | > 10 | N#Cc1ccc(/C(=C\CC(N)C(=O)O)c2ccc(F)cc2F)cc1 (stereo not given) |
| 5.77 | 1.03 | CC(C)c1ccc(/C(=C\CC(N)C(=O)O)c2ccsc2)cc1 (stereo not given) |
|  | 0.15 | CC(C)c1ccc(/C(=C\C[C@H](N)C(=O)O)c2ccc(F)cc2F)cc1 |
|  | 0.283 | CCc1ccc(/C(=C\C[C@H](N)C(=O)O)c2ccc(F)cc2F)cc1CC |
| > 10 | 1.74 | CC(C)(C)c1ccc(/C(=C\CC(N)C(=O)O)c2ccc(F)cc2F)cc1 (stereo not given) |
| > 10 | 1.59 | CC(C)c1cccc(/C(=C\CC(N)C(=O)O)c2ccc(F)cc2F)c1 (stereo not given) |
| 9.5 | 6.44 | NC(C/C=C(\c1ccccc1)c1ccc(F)cc1F)C(=O)O (stereo not given) |
| > 10 | 2.06 | CC(C)c1ccc(/C(=C\CC(N)C(=O)O)c2ccc(-c3ccccc3)cc2)cc1 (stereo not given) |
| > 10 | 5.88 | NC(C/C=C(\c1ccsc1)c1ccc(F)cc1F)C(=O)O (stereo not given) |
| > 10 | 2.64 | CC(C)c1ccc(/C(=C\CC(N)C(=O)O)c2ccc(C#N)cc2)cc1 (stereo not given) |
| > 10 | 3.66 | NC(C/C=C(\c1ccc(-c2ccccc2)cc1)c1ccc(F)cc1F)C(=O)O (stereo not given) |
| 8.34 | 0.4 | CC(C)c1ccc(/C(=C\CC(N)C(=O)O)c2ccccc2)cc1 (stereo not given) |
| > 10 | 2.03 | COc1ccc(/C(=C\CC(N)C(=O)O)c2ccc(F)cc2F)cc1 (stereo not given) |
| > 10 | 0.66 | CCc1ccc(/C(=C\CC(N)C(=O)O)c2ccc(F)cc2F)cc1CC (stereo not given) |
| > 10 | > 10 | NC(C/C=C(\c1cccnc1)c1ccc(F)cc1F)C(=O)O (stereo not given) |
| 8.02 | 0.29 | CC(C)c1ccc(/C(=C\CC(N)C(=O)O)c2ccccc2F)cc1 (stereo not given) |
| > 10 | > 10 | CC(C)c1ccc(/C(=C/CC(N)C(=O)O)c2ccc(F)cc2F)cc1 (stereo not given) |
|  | 0.365 | N[C@@H](C/C=C(\c1ccc2ccccc2c1)c1ccc(F)cc1F)C(=O)O |
| > 10 | 2.03 | CC(C)c1ccc(C(=CCC(N)C(=O)O)c2ccc(C(C)C)cc2)cc1 (stereo not given) |
| > 10 | 0.33 | CC(C)c1ccc(/C(=C\CC(N)C(=O)O)c2ccc(F)cc2F)cc1 (stereo not given) |
| 8.92 | 2.75 | NC(C/C=C(/c1ccc(F)cc1F)c1ccccc1-c1ccccc1)C(=O)O (stereo not given) |
| > 10 | 5.47 | CC(C)c1ccc(/C(=C\CC(N)C(=O)O)c2ccc(C(C)(C)C)cc2)cc1 (stereo not given) |
| 6.48 | 5.93 | CC(C)c1ccc(/C(=C\CC(N)C(=O)O)c2cccnc2)cc1 (stereo not given) |
| > 10 | 1.34 | NC(C/C=C(\c1cccc(-c2ccccc2)c1)c1ccc(F)cc1F)C(=O)O (stereo not given) |
| > 10 | 1.16 | COc1ccc(/C(=C/CC(N)C(=O)O)c2ccc(C(C)C)cc2)cc1 (stereo not given) |
| 9.56 | 1.17 | Cc1ccc(/C(=C\CC(N)C(=O)O)c2ccc(F)cc2F)cc1 (stereo not given) |
